Reference: PubChem BioAssay (NCI)
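Compound exposure: 48 hours, 5 concentrations, 96-well plates. The concentration for full growth arrest is given as TGI.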

Experiments:
Experiment in all cases: NCI-60 cell line screen, 48 h
MCF7 breast = test system: MCF7 breast
NCI-H23 lung = test system: NCI-H23 lung
OVCAR-3 ovarian = test system: OVCAR-3 ovarian
TK-10 renal = test system: TK-10 renal
MOLT-4 leukemia = test system: MOLT-4 leukemia
M14 melanoma = test system: M14 melanoma
SNB-19 CNS = test system: SNB-19 CNS
HOP-92 NSCLC = test system: HOP-92 NSCLC
U251 CNS = test system: U251 CNS
UACC-257 melanoma = test system: UACC-257 melanoma
K-562 leukemia = test system: K-562 leukemia
SN12C renal = test system: SN12C renal
RPMI-8226 leukemia = test system: RPMI-8226 leukemia
CCRF-CEM leukemia = test system: CCRF-CEM leukemia
EKVX NSCLC = test system: EKVX NSCLC
NCI/ADR-RES ovarian = test system: NCI/ADR-RES ovarian
KM12 colon = test system: KM12 colon
CAKI-1 renal = test system: CAKI-1 renal
MDA-MB-435 = test system: MDA-MB-435
HL-60(TB) leukemia = test system: HL-60(TB) leukemia
SK-OV-3 ovarian = test system: SK-OV-3 ovarian
HCT-15 colon = test system: HCT-15 colon
HS 578T breast = test system: HS 578T breast
OVCAR-8 ovarian = test system: OVCAR-8 ovarian
SF-268 CNS = test system: SF-268 CNS
MALME-3M melanoma = test system: MALME-3M melanoma
SR leukemia = test system: SR leukemia
UO-31 renal = test system: UO-31 renal
NCI-H460 lung = test system: NCI-H460 lung
HCC-2998 colon = test system: HCC-2998 colon
IGROV1 ovarian = test system: IGROV1 ovarian
OVCAR-4 ovarian = test system: OVCAR-4 ovarian
SNB-75 CNS = test system: SNB-75 CNS
ACHN renal = test system: ACHN renal
OVCAR-5 ovarian = test system: OVCAR-5 ovarian
SK-MEL-2 melanoma = test system: SK-MEL-2 melanoma
LOX IMVI melanoma = test system: LOX IMVI melanoma
RXF 393 renal = test system: RXF 393 renal
MDA-N = test system: MDA-N
SF-539 CNS = test system: SF-539 CNS
NCI-H226 lung = test system: NCI-H226 lung
SW-620 colon = test system: SW-620 colon
A498 renal = test system: A498 renal
DU-145 prostate = test system: DU-145 prostate
NCI-H522 lung = test system: NCI-H522 lung
T-47D breast = test system: T-47D breast
HCT-116 colon = test system: HCT-116 colon
SF-295 CNS = test system: SF-295 CNS
HOP-62 NSCLC = test system: HOP-62 NSCLC
786-0 renal = test system: 786-0 renal
SK-MEL-5 melanoma = test system: SK-MEL-5 melanoma
PC-3 prostate = test system: PC-3 prostate
MDA-MB-231 breast = test system: MDA-MB-231 breast
SK-MEL-28 melanoma = test system: SK-MEL-28 melanoma
A549 NSCLC = test system: A549 NSCLC
HT29 colon = test system: HT29 colon
COLO 205 colon = test system: COLO 205 colon
UACC-62 melanoma = test system: UACC-62 melanoma

With `O=C(NC(O)(C(F)(F)F)C(F)(F)F)c1ccccc1` the TGI (MCF7 breast) was > 100 µM, the TGI (NCI-H23 lung) was > 100 µM and the TGI (OVCAR-3 ovarian) was > 100 µM. For the same molecule, the TGI (TK-10 renal) was > 100 µM, the TGI (MOLT-4 leukemia) was > 100 µM and the TGI (M14 melanoma) was > 100 µM. For the same molecule, the TGI (SNB-19 CNS) was > 100 µM, the TGI (HOP-92 NSCLC) was > 100 µM and the TGI (U251 CNS) was > 100 µM. For the same molecule, the TGI (UACC-257 melanoma) was > 100 µM, the TGI (K-562 leukemia) was > 100 µM and the TGI (SN12C renal) was > 100 µM. The TGI (RPMI-8226 leukemia) was > 100 µM, the TGI (CCRF-CEM leukemia) was > 100 µM and the TGI (EKVX NSCLC) was > 100 µM. The TGI (NCI/ADR-RES ovarian) was > 100 µM, the TGI (KM12 colon) was > 100 µM and the TGI (CAKI-1 renal) was > 100 µM. For the same molecule, the TGI (MDA-MB-435) was > 100 µM, the TGI (HL-60(TB) leukemia) was > 100 µM and the TGI (SK-OV-3 ovarian) was > 100 µM. The TGI (HCT-15 colon) was > 100 µM, the TGI (HS 578T breast) was > 100 µM and the TGI (OVCAR-8 ovarian) was > 100 µM. The TGI (SF-268 CNS) was > 100 µM, the TGI (MALME-3M melanoma) was > 100 µM and the TGI (SR leukemia) was > 100 µM. The TGI (UO-31 renal) was > 100 µM, the TGI (NCI-H460 lung) was > 100 µM and the TGI (HCC-2998 colon) was > 100 µM. For the same molecule, the TGI (IGROV1 ovarian) was > 100 µM, the TGI (OVCAR-4 ovarian) was > 100 µM and the TGI (SNB-75 CNS) was > 100 µM. For the same molecule, the TGI (ACHN renal) was > 100 µM, the TGI (OVCAR-5 ovarian) was > 100 µM and the TGI (SK-MEL-2 melanoma) was > 100 µM. For the same molecule, the TGI (LOX IMVI melanoma) was > 100 µM, the TGI (RXF 393 renal) was > 100 µM and the TGI (MDA-N) was > 100 µM. The TGI (SF-539 CNS) was > 100 µM, the TGI (NCI-H226 lung) was > 100 µM and the TGI (SW-620 colon) was > 100 µM. For the same molecule, the TGI (A498 renal) was > 100 µM, the TGI (DU-145 prostate) was > 100 µM and the TGI (NCI-H522 lung) was > 100 µM. The TGI (T-47D breast) was > 100 µM, the TGI (HCT-116 colon) was > 100 µM and the TGI (SF-295 CNS) was > 100 µM. The TGI (HOP-62 NSCLC) was > 100 µM, the TGI (786-0 renal) was > 100 µM and the TGI (SK-MEL-5 melanoma) was > 100 µM. For the same molecule, the TGI (PC-3 prostate) was > 100 µM, the TGI (MDA-MB-231 breast) was > 100 µM and the TGI (SK-MEL-28 melanoma) was > 100 µM. For the same molecule, the TGI (A549 NSCLC) was > 100 µM, the TGI (HT29 colon) was > 100 µM and the TGI (COLO 205 colon) was > 100 µM.
`COC1=CC(=O)c2c(cc(COP(N)(=O)N(CCBr)CCBr)n2C)C1=O` (centres undefined) gave a TGI (MCF7 breast) of 16.1 µM, a TGI (NCI-H23 lung) of 2.67 µM and a TGI (OVCAR-3 ovarian) of 0.651 µM. For the same molecule, the TGI (TK-10 renal) was 3.43 µM, the TGI (MOLT-4 leukemia) was > 100 µM and the TGI (M14 melanoma) was 0.633 µM. For the same molecule, the TGI (SNB-19 CNS) was 8.28 µM, the TGI (U251 CNS) was 0.859 µM and the TGI (UACC-257 melanoma) was 4.44 µM. The TGI (K-562 leukemia) was > 100 µM, the TGI (SN12C renal) was 1.08 µM and the TGI (RPMI-8226 leukemia) was 1.16 µM. For the same molecule, the TGI (CCRF-CEM leukemia) was 0.771 µM, the TGI (EKVX NSCLC) was 0.207 µM and the TGI (NCI/ADR-RES ovarian) was 7.86 µM. It also gave a TGI (KM12 colon) of 4.72 µM, a TGI (MDA-MB-435) of 2.42 µM and a TGI (HL-60(TB) leukemia) of 3.64 µM. The TGI (SK-OV-3 ovarian) was 1.15 µM, the TGI (HCT-15 colon) was 2.5 µM and the TGI (OVCAR-8 ovarian) was 1.2 µM. The TGI (SF-268 CNS) was 1.8 µM, the TGI (MALME-3M melanoma) was 1.86 µM and the TGI (SR leukemia) was 1.6 µM. The TGI (UO-31 renal) was 3.66 µM, the TGI (NCI-H460 lung) was 5.38 µM and the TGI (IGROV1 ovarian) was 2.8 µM. The TGI (OVCAR-4 ovarian) was 10.5 µM, the TGI (SNB-75 CNS) was 1.19 µM and the TGI (ACHN renal) was 0.0219 µM. For the same molecule, the TGI (OVCAR-5 ovarian) was 1.06 µM, the TGI (SK-MEL-2 melanoma) was 3.57 µM and the TGI (LOX IMVI melanoma) was 0.121 µM. It also gave a TGI (RXF 393 renal) of 1.49 µM, a TGI (MDA-N) of 2.24 µM and a TGI (SF-539 CNS) of 0.133 µM. It also gave a TGI (NCI-H226 lung) of 1.17 µM, a TGI (SW-620 colon) of 1.48 µM and a TGI (A498 renal) of 2.88 µM. The TGI (DU-145 prostate) was 1.41 µM, the TGI (NCI-H522 lung) was 0.188 µM and the TGI (T-47D breast) was 2.98 µM. For the same molecule, the TGI (HCT-116 colon) was 0.131 µM, the TGI (SF-295 CNS) was 0.225 µM and the TGI (SK-MEL-5 melanoma) was 2.2 µM. The TGI (PC-3 prostate) was 4.62 µM, the TGI (MDA-MB-231 breast) was 7.1 µM and the TGI (SK-MEL-28 melanoma) was 3.1 µM. For the same molecule, the TGI (UACC-62 melanoma) was 1.47 µM, the TGI (A549 NSCLC) was 1.71 µM and the TGI (HT29 colon) was 1.05 µM. It also gave a TGI (COLO 205 colon) of 0.144 µM.
